The test system of series [1] is TNF alpha release from human PBMCs. The series is described as follows: Inhibition of TNF alpha release from human PBMCs. It is filed as cell-based. As to conditions: LPS 1 μg/ml, 18 hours, AlphaLISA. Summed up:
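Fresh or thawed PBMCs in serum-free medium with 0.5% HSA, stimulated with 1 μg/ml LPS plus titrated compound for 18 h at 37° C. TNF-a in supernatant by AlphaLISA; window set with a reference PDE4 inhibitor at 100×IC50. EC50 and Emax from sigmoidal fits.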
Background: In Alpha technology, singlet oxygen from a donor bead excites a nearby acceptor bead.

A short description of series [2]: Human liver microsomes (HLM) assay. The note with it: hepatic extraction ratio; 0.5 μM compound, 0.5 mg/mL microsomes, NADPH, 37° C. It is filed as in vitro ADME. How it is done:
Incubations of test compounds in DMSO, diluted with phosphate buffer, pH 7.4, at 0.5 μM were carried out with human liver microsomes (0.5 mg/mL). The percentage of organic solvent in the incubations was 1%. The human liver microsomal suspension in phosphate buffer was mixed with NADPH (1 mM) and preheated to 37° C. before test compound was added. Aliquots were taken at 0, 5, 10, 20 and 30 minutes, and reactions were terminated by addition of methanol containing analytical internal standard (IS).
The results were expressed as apparent clearance (Clapp) (mL/min/kg) and hepatic extraction ratio (Eh) (%) calculated from the rate constant (k) (min^−1) of test compound depletion.
(Microsomes from liver hold many membrane-bound enzymes, among them those of drug oxidation.)

Series [3] deals with T1, glucocorticoid receptor (GR), recombinant full-length receptor protein (Homo sapiens, UniProt P04150).
T1 construct: 4 nM recombinant, full-length receptor protein was incubated with increasing concentrations of GR ligand; purchased Life Technologies A-15897
T1 sequence (P04150 1-777): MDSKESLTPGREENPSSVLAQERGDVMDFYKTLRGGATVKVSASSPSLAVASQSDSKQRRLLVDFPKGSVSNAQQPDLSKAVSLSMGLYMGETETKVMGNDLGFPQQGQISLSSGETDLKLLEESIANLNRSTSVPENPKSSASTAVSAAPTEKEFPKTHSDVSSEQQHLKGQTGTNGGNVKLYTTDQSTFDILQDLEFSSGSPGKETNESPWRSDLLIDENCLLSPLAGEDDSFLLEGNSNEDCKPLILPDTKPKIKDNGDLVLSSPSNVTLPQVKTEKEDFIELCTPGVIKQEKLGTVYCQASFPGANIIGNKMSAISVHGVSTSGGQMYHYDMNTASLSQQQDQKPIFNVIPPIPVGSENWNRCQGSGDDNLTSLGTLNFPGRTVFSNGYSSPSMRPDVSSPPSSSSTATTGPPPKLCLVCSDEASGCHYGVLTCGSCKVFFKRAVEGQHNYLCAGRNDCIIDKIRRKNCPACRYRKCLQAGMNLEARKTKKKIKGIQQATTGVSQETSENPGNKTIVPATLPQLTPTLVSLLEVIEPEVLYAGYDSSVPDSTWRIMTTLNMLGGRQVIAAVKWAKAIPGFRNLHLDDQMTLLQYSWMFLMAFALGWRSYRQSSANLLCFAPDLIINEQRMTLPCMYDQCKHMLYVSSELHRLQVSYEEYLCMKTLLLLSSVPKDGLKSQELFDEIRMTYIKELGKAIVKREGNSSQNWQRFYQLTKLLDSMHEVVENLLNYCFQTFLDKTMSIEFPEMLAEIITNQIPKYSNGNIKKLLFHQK
The series is described as follows: Glucocorticoid receptor binding assay (fluorescence polarization kit). The note with it: 4 nM receptor, 2.5 nM Fluormone GS1 tracer, 2h room temperature, read-out: GR binding ABS IC50. How it is done:
Test compounds were diluted in DMSO over seven orders of magnitude, further diluted in assay buffer and distributed into 384-well plates. The sensitivity limit of this assay was 2-4 nM.
Data were processed by sigmoidal curve fitting.
Absolute (Abs) IC50 and Emax were determined from the curve fits.

In series [1] (PBMC), `C[C@H](NC(=O)c1ccno1)[C@H](Oc1ccc(C(=O)N[C@H]2CCCN(C(=O)[C@H]3COC(=O)C3)C2)nc1)c1ccc(C2CC2)cc1` [Compound 12, N-[(1S,2R)-2-(4-cyclopropylphenyl)-1-methyl-2-[[6-[[(3S)-1-[(3R)-5-oxotetrahydrofuran-3-carbonyl]-3-piperidyl]carbamoyl]-3-pyridyl]oxy]ethyl]isoxazole-5-carboxamide] came in with an EC50 of under 100 nM. In addition, the “HLM assay Eh (%)” value in series [2] is “* (extraction ratio (Eh)>90%)”. Also, the IC50 in series [3] is under 100 nM.

As to `C[C@H](NC(=O)c1cnco1)[C@H](Oc1ccc(C(=O)O[C@H]2CCCN(C(=O)[C@H]3COC(=O)C3)C2)cc1)c1ccc(C2CC2)cc1` [Compound 50, [(3S)-1-[(3R)-5-oxotetrahydrofuran-3-carbonyl]-3-piperidyl] 4-[(1R,2S)-1-(4-cyclopropylphenyl)-2-(oxazole-5-carbonylamino)propoxy]benzoate], the EC50 in series [1] (PBMC) was under 100 nM. Besides, in series [2], the “HLM assay Eh (%)” value is “* (extraction ratio (Eh)>90%)”. Also, in series [3], the IC50 is under 100 nM.

In the case of `C[C@H](NC(=O)c1cocn1)[C@H](Oc1ccc(C(=O)N[C@H]2CCCN(C(=O)[C@H]3COC(=O)C3)C2)nc1)c1ccc(C2CC2)cc1` [Compound 19, N-[(1S,2R)-2-(4-cyclopropylphenyl)-1-methyl-2-[[6-[[(3S)-1-[(3R)-5-oxotetrahydrofuran-3-carbonyl]-3-piperidyl]carbamoyl]-3-pyridyl]oxy]ethyl]oxazole-4-carboxamide], the EC50 in series [1] (PBMC) is under 100 nM. The “HLM assay Eh (%)” value in series [2] is “* (extraction ratio (Eh)>90%)”. Further, the IC50 in series [3] was under 100 nM.

On to `C[C@H](NC(=O)c1ncon1)[C@H](Oc1ccc(C(=O)O[C@H]2CCCN(C(=O)[C@H]3COC(=O)C3)C2)cc1)c1ccc(C2CC2)cc1` [Compound 39, [(3S)-1-[(3R)-5-oxotetrahydrofuran-3-carbonyl]-3-piperidyl] 4-[(1R,2S)-1-(4-cyclopropylphenyl)-2-(1,2,4-oxadiazole-3-carbonylamino)propoxy]benzoate], for which the EC50 in series [1] (PBMC) was under 100 nM. The “HLM assay Eh (%)” value in series [2] is given as “* (extraction ratio (Eh)>90%)”. The IC50 in series [3] is under 100 nM.

In turn, `Cc1cnc(C(=O)N[C@@H](C)[C@H](Oc2ccc(C(=O)O[C@H]3CCCN(C(=O)[C@H]4COC(=O)C4)C3)cc2)c2ccc(C3CC3)cc2)s1` [Compound 26, [(3S)-1-[(3R)-5-oxotetrahydrofuran-3-carbonyl]-3-piperidyl] 4-[(1R,2S)-1-(4-cyclopropylphenyl)-2-[(5-methylthiazole-2-carbonyl)amino]propoxy]benzoate] returned an EC50 in series [1] (PBMC) of under 100 nM. Moreover, the “HLM assay Eh (%)” value in series [2] is recorded as “* (extraction ratio (Eh)>90%)”. In addition, in series [3], the IC50 is under 100 nM.

Take `C[C@H](NC(=O)c1csnn1)[C@H](Oc1ccc(C(=O)O[C@H]2CCCN(C(=O)[C@H]3COC(=O)C3)C2)cc1)c1ccc(C2CC2)cc1` [Compound 52, [(3S)-1-[(3R)-5-oxotetrahydrofuran-3-carbonyl]-3-piperidyl] 4-[(1R,2S)-1-(4-cyclopropylphenyl)-2-(thiadiazole-4-carbonylamino)propoxy]benzoate]: the concentration giving a half-maximal response (EC50) in series [1] was under 100 nM. Moreover, the “HLM assay Eh (%)” value in series [2] is reported as “* (extraction ratio (Eh)>90%)”. Further, the IC50 in series [3] is under 100 nM.

Take `C[C@H](NC(=O)c1ccon1)[C@H](Oc1ccc(C(=O)N[C@H]2CCCN(C(=O)[C@H]3COC(=O)C3)C2)nc1)c1ccc(C2CC2)cc1` [Compound 23, N-[(1S,2R)-2-(4-cyclopropylphenyl)-1-methyl-2-[[6-[[(3S)-1-[(3R)-5-oxotetrahydrofuran-3-carbonyl]-3-piperidyl]carbamoyl]-3-pyridyl]oxy]ethyl]isoxazole-3-carboxamide]: the EC50 in series [1] (PBMC) is under 100 nM. Also, in series [2], the “HLM assay Eh (%)” value is given as “* (extraction ratio (Eh)>90%)”. In addition, the 50% inhibitory concentration (IC50) in series [3] is under 100 nM.

As to `C[C@H](NC(=O)C(F)(F)F)[C@H](Oc1ccc(C(=O)O[C@H]2CCCN(C(=O)[C@H]3COC(=O)C3)C2)cc1)c1ccc(C2CC2)cc1` [Compound 24, [(3S)-1-[(3R)-5-oxotetrahydrofuran-3-carbonyl]-3-piperidyl] 4-[(1R,2S)-1-(4-cyclopropylphenyl)-2-[(2,2,2-trifluoroacetyl)amino]propoxy]benzoate], in series [1] (PBMC), the EC50 is under 100 nM. The “HLM assay Eh (%)” value in series [2] was “* (extraction ratio (Eh)>90%)”. Moreover, the concentration for half-maximal inhibition (IC50) in series [3] is under 100 nM.

Regarding `C[C@H](NC(=O)[C@@H]1CCCO1)[C@H](Oc1ccc(C(=O)N[C@H]2CCCN(C(=O)[C@H]3COC(=O)C3)C2)nc1)c1ccc(C2CC2)cc1` [Compound 20, 5-[(1R,2S)-1-(4-cyclopropylphenyl)-2-[[(2S)-tetrahydrofuran-2-carbonyl]amino]propoxy]-N-[(3S)-1-[(3R)-5-oxotetrahydrofuran-3-carbonyl]-3-piperidyl]pyridine-2-carboxamide], in series [1] (PBMC), the EC50 was under 100 nM. In series [2], the “HLM assay Eh (%)” value was “* (extraction ratio (Eh)>90%)”. Besides, in series [3], the IC50 fell in the range of 100 to 300 nM.

For `CC[C@@H](O)C(=O)N[C@@H](C)[C@H](Oc1ccc(C(=O)N[C@H]2CCCN(C(=O)[C@H]3COC(=O)C3)C2)nc1)c1ccc(C2CC2)cc1` [Compound 13, 5-[(1R,2S)-1-(4-cyclopropylphenyl)-2-[[(2R)-2-hydroxybutanoyl]amino]propoxy]-N-[(3S)-1-[(3R)-5-oxotetrahydrofuran-3-carbonyl]-3-piperidyl]pyridine-2-carboxamide], the EC50 in series [1] (PBMC) is under 100 nM. Besides, in series [2], the “HLM assay Eh (%)” value is on record as “* (extraction ratio (Eh)>90%)”. The IC50 in series [3] lay in the range of 100 to 300 nM.

As to `Cc1ncoc1C(=O)N[C@@H](C)[C@H](Oc1ccc(C(=O)O[C@H]2CCCN(C(=O)[C@H]3COC(=O)C3)C2)cc1)c1ccc(C2CC2)cc1` [Compound 33, [(3S)-1-[(3R)-5-oxotetrahydrofuran-3-carbonyl]-3-piperidyl] 4-[(1R,2S)-1-(4-cyclopropylphenyl)-2-[(4-methyloxazole-5-carbonyl)amino]propoxy]benzoate], in series [1] (PBMC), the EC50 is 100 to 300 nM. Also, the “HLM assay Eh (%)” value in series [2] is listed as “* (extraction ratio (Eh)>90%)”. The IC50 in series [3] was under 100 nM.

For `C[C@H](NC(=O)[C@@H](C)O)[C@H](Oc1ccc(C(=O)N[C@H]2CCCN(C(=O)[C@H]3COC(=O)C3)C2)nc1)c1ccc(C2CC2)cc1` [Compound 11, 5-[(1R,2S)-1-(4-cyclopropylphenyl)-2-[[(2R)-2-hydroxypropanoyl]amino]propoxy]-N-[(3S)-1-[(3R)-5-oxotetrahydrofuran-3-carbonyl]-3-piperidyl]pyridine-2-carboxamide], in series [1] (PBMC), the EC50 was under 100 nM. The “HLM assay Eh (%)” value in series [2] is “* (extraction ratio (Eh)>90%)”. Besides, the half-maximal inhibitory concentration (IC50) in series [3] was over 300 nM.

As to `C[C@H](NC(=O)C1(O)CC1)[C@H](Oc1ccc(C(=O)N[C@H]2CCCN(C(=O)[C@H]3COC(=O)C3)C2)nc1)c1ccc(C2CC2)cc1` [Compound 18, 5-[(1R,2S)-1-(4-cyclopropylphenyl)-2-[(1-hydroxycyclopropanecarbonyl)amino]propoxy]-N-[(3S)-1-[(3R)-5-oxotetrahydrofuran-3-carbonyl]-3-piperidyl]pyridine-2-carboxamide], in series [1] (PBMC), the EC50 was under 100 nM. The “HLM assay Eh (%)” value in series [2] was “* (extraction ratio (Eh)>90%)”. Moreover, in series [3], the IC50 lay within 100 to 300 nM.

`Cc1nnsc1C(=O)N[C@@H](C)[C@H](Oc1ccc(C(=O)O[C@H]2CCCN(C(=O)[C@H]3COC(=O)C3)C2)cc1)c1ccc(C2CC2)cc1` [Compound 32, [(3S)-1-[(3R)-5-oxotetrahydrofuran-3-carbonyl]-3-piperidyl] 4-[(1R,2S)-1-(4-cyclopropylphenyl)-2-[(4-methylthiadiazole-5-carbonyl)amino]propoxy]benzoate] yielded an EC50 in series [1] (PBMC) of under 100 nM. Moreover, the “HLM assay Eh (%)” value in series [2] is listed as “* (extraction ratio (Eh)>90%)”. Further, in series [3], the IC50 was under 100 nM.

A word on the EC50: it is the concentration giving half of the maximal effect. A high value points to weaker potency. By IC50 is commonly meant the concentration at which inhibition is half-maximal.

The values above are taken from patent US10494363B2, “Non-steroidal glucocorticoid receptor modulators for local drug delivery” (LEO PHARMA A/S, priority 2015, dated 2019).
